Measured values published in patent US20220411372A1, “SMALL-MOLECULE INHIBITORS FOR THE B-CATENIN/B-CELL LYMPHOMA 9 PROTEIN-PROTEIN INTERACTION” (H. Lee Moffitt Cancer Center and Research Institute, Inc., priority 2019, published 2022).

The compounds below were run against T1, β-catenin/BCL9 PPI (Homo sapiens, UniProt P35222) (assay: AlphaScreen competitive inhibition assay of the β-catenin/BCL9 PPI). Settings: Table 3, inhibitors 27-43; read-out: Ki.
T1 construct: Full-length β-catenin (residues 1-781) were cloned into a pET-28b vector; made in house; host or cells: E. coli BL21 DE3 (β-catenin); BCL9 peptide synthesized by InnoPep Inc
T1 sequence (P35222 1-781): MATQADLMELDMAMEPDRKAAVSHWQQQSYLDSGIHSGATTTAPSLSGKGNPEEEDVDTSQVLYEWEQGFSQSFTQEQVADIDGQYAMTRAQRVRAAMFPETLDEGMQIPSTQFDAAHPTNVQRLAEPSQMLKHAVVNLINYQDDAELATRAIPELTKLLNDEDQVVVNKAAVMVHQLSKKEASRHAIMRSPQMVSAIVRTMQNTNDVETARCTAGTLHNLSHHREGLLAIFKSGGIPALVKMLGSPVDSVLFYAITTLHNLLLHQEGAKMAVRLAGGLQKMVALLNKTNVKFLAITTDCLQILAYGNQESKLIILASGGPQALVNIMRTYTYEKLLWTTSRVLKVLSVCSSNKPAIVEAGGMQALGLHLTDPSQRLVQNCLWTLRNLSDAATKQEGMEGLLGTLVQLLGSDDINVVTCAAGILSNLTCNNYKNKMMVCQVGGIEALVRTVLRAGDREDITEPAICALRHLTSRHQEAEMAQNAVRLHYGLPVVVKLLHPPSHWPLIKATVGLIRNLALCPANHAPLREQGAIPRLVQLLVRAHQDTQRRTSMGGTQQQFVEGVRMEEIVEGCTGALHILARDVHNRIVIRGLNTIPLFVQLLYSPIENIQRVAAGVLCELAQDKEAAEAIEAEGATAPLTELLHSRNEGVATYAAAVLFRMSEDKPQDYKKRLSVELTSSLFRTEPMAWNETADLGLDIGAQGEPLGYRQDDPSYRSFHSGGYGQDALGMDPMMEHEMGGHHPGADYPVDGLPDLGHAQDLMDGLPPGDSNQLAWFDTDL
Format: binding
Experimental: AlphaScreen Assays of β-Catenin and BCL9 Interaction. Experiments were performed in white opaque 384-well plates from PerkinElmer (Waltham, Mass.), and the samples were read on a Synergy 2 plate reader (Biotek, Winooski, Vt.) with excitation at 680 nm and emission at 570 nm. The standard AlphaScreen protocol was used with a sensitivity setting of 200. All dilutions were made in 1× assay buffer containing 25 mM Hepes (pH 7.4), 100 mM NaCl, 0.01% Triton X-100 and 0.1% BSA to minimize nonspecific interactions.
For the β-catenin/BCL9 assay, 5 nM biotinylated BCL9 and 40 nM His6-tagged β-catenin were incubated in assay buffer at 4° C. for 30 min. For the β-catenin/E-cadherin assay, 10 nM biotinylated human E-cadherin, and 40 nM His6-tagged human β-catenin were added and incubated in assay buffer at 4° C. for 30 min. Different concentrations of the tested inhibitor were added and incubated in 20 μL assay buffer at 4° C. for another 1 h. All of the assay plates were covered and gently mixed on an orbital shaker. The donor and acceptor beads were then added to the plates to a final concentration of 10 μg/mL in […]. The mixture was incubated for 1 h at 4° C. before detection. The IC50 value was determined by nonlinear least-square analysis of GraphPad Prism 5.0. […] All of the experiments were performed in triplicate and carried out in the presence of 1% DMSO for small-molecule inhibitors. Each compound was assayed at least by two independent experiments. The results were expressed as mean±standard deviation. The inhibitor selectivity for β-catenin/BCL9 over β-catenin/E-canderin interactions was defined as the ratio of the respective Ki value of β-catenin/E-cadherin interactions over that of β-catenin/BCL9 interactions.

`CC(C)(Oc1cccc(N2CCC[C@@H](C(=O)N(Cc3ccc(-c4c[nH]c5ccccc45)cc3)C3CC3)C2)c1)C(=O)N1CCNCC1` [Compound 42, (R)-4-(2-(3-(3-((4-(1H-indol-3-yl)benzyl)(cyclopropyl)carbamoyl)piperidin-1-yl)phenoxy)-2-methylpropanoyl)piperazin-1-ium] was tested, and the Ki was < 5 µM.

Same assay, conditions: Table 4, left half, inhibitors 44-48; read-out: Ki

`CN(Cc1ccc(-c2cn[nH]c2)cc1)C(=O)[C@@H]1CCCN(c2cccc(OC(C)(C)C(=O)N3CCNCC3)c2)C1` [Compound 45, (R)-4-(2-(3-(3-((4-(1H-pyrazol-4-yl)benzyl)(methyl)carbamoyl)piperidin-1-yl)phenoxy)-2-methylpropanoyl)piperazin-1-ium chloride] and `CC(C)N(Cc1ccc(-c2cn[nH]c2)cc1)C(=O)[C@@H]1CCCN(c2cccc(OC(C)(C)C(=O)N3CCNCC3)c2)C1` [Compound 47, (R)-4-(2-(3-(3-((4-(1H-pyrazol-4-yl)benzyl)(isopropyl)carbamoyl)piperidin-1-yl)phenoxy)-2-methylpropanoyl)piperazin-1-ium chloride] cannot be ordered by Ki: < 30 µM for the first, < 10 µM for the second.

With `CC(C)(Oc1cccc(N2CCC[C@@H](C(=O)N(Cc3ccc(-c4cn[nH]c4)cc3)CC3CC3)C2)c1)C(=O)N1CCNCC1` [Compound 48, (R)-4-(2-(3-(3-((4-(1H-pyrazol-4-yl)benzyl)(cyclopropylmethyl)carbamoyl)piperidin-1-yl)phenoxy)-2-methylpropanoyl)piperazin-1-ium chloride] the Ki was < 90 µM.

Same assay, conditions: Table 4, right half, inhibitors 49-53; read-out: Ki ± SD

`CC(C)(Oc1cccc(N2CCC[C@@H](C(=O)N(Cc3ccc(-c4cn[nH]c4)cc3)C3CCC3)C2)c1)C(=O)N1CCNCC1` [Compound 49, (R)-4-(2-(3-(3-((4-(1H-pyrazol-4-yl)benzyl)(cyclobutyl)carbamoyl)piperidin-1-yl)phenoxy)-2-methylpropanoyl)piperazin-1-ium chloride] and `CC(C)(Oc1cccc(N2CCC[C@@H](C(=O)N(Cc3ccc(-c4cn[nH]c4)cc3)C3CCCC3)C2)c1)C(=O)N1CCNCC1` [Compound 50, (R)-4-(2-(3-(3-((4-(1H-pyrazol-4-yl)benzyl)(cyclopentyl)carbamoyl)piperidin-1-yl)phenoxy)-2-methylpropanoyl)piperazin-1-ium chloride] cannot be ordered by Ki: < 30 µM for the first, < 10 µM for the second.

`CC(C)(Oc1cccc(N2CCC[C@@H](C(=O)N(Cc3ccc(-c4cn[nH]c4)cc3)C3CCCCC3)C2)c1)C(=O)N1CCNCC1` [Compound 51, (R)-4-(2-(3-(3-((4-(1H-pyrazol-4-yl)benzyl)(cyclohexyl)carbamoyl)piperidin-1-yl)phenoxy)-2-methylpropanoyl)piperazin-1-ium chloride] and `CC(C)(Oc1cccc(N2CCC[C@@H](C(=O)N(CCN)Cc3ccc(-c4cn[nH]c4)cc3)C2)c1)C(=O)N1CCNCC1` [Compound 53, (R)-4-(2-(3-(3-((4-(1H-pyrazol-4-yl)benzyl)(2-ammonioethyl)carbamoyl)piperidin-1-yl)phenoxy)-2-methylpropanoyl)piperazin-1-ium chloride] cannot be ordered by Ki: < 30 µM for the first, < 90 µM for the second.

With `CCOCCN(Cc1ccc(-c2cn[nH]c2)cc1)C(=O)[C@@H]1CCCN(c2cccc(OC(C)(C)C(=O)N3CCNCC3)c2)C1.Cl` [Compound 52, (R)-4-(2-(3-(3-((4-(1H-pyrazol-4-yl)benzyl)(2-ethoxyethyl)carbamoyl)piperidin-1-yl)phenoxy)-2-methylpropanoyl)piperazin-1-ium chloride] the Ki was < 5 µM.

Same assay, conditions: Table 5, inhibitors 54-62; read-out: Ki

Compared with `CC(C)(Oc1cccc(N2CCC[C@@H](C(=O)N(Cc3ccc(-c4cn[nH]c4)cc3)C3CC3)C2)c1)C(=O)N1CCCNCC1` [Compound 54, (R)-4-(2-(3-(3-((4-(1H-pyrazol-4-yl)benzyl)(cyclopropyl)carbamoyl)piperidin-1-yl)phenoxy)-2-methylpropanoyl)-1,4-diazepan-1-ium chloride], `CC(C)(Oc1cccc(N2CCC[C@@H](C(=O)N(Cc3ccc(-c4cn[nH]c4)cc3)C3CC3)C2)c1)C(=O)N1CCCCC1` [Compound 57, (R)-N-(4-(1H-pyrazol-4-yl)benzyl)-N-cyclopropyl-1-(3-((2-methyl-1-oxo-1-(piperidin-1-yl)propan-2-yl)oxy)phenyl)piperidine-3-carboxamide] is higher in Ki: < 10 µM for the first, > 90 µM for the second. The first binds more tightly here.

Compared with `CC(C)(Oc1cccc(N2CCC[C@@H](C(=O)N(Cc3ccc(-c4cn[nH]c4)cc3)C3CC3)C2)c1)C(=O)N1CCOCC1` [Compound 56, (R)-N-(4-(1H-pyrazol-4-yl)benzyl)-N-cyclopropyl-1-(3-((2-methyl-1-morpholino-1-oxopropan-2-yl)oxy)phenyl)piperidine-3-carboxamide], `CC(C)(Oc1cccc(N2CCC[C@@H](C(=O)N(Cc3ccc(-c4cn[nH]c4)cc3)C3CC3)C2)c1)C(=O)N1CC2(CNC2)C1` [Compound 62, (R)-6-(2-(3-(3-((4-(1H-pyrazol-4-yl)benzyl)(cyclopropyl)carbamoyl)piperidin-1-yl)phenoxy)-2-methylpropanoyl)-2,6-diazaspiro[3.3]heptan-2-ium 2,2,2-trifluoroacetate] is lower in Ki: > 90 µM for the first, < 90 µM for the second.

`CC(C)(Oc1cccc(N2CCC[C@@H](C(=O)N(Cc3ccc(-c4cn[nH]c4)cc3)C3CC3)C2)c1)C(=O)N1C[C@H]2CNC[C@H]2C1` [Compound 58, (3aR,6aS)-5-(2-(3-((R)-3-((4-(1H-pyrazol-4-yl)benzyl)(cyclopropyl)carbamoyl)piperidin-1-yl)phenoxy)-2-methylpropanoyl)octahydropyrrolo[3,4-c]pyrrol-2-ium chloride] and `CC(C)(Oc1cccc(N2CCC[C@@H](C(=O)N(Cc3ccc(-c4cn[nH]c4)cc3)C3CC3)C2)c1)C(=O)N1CCC2(CNC2)C1` [Compound 61, (R)-6-(2-(3-(3-((4-(1H-pyrazol-4-yl)benzyl)(cyclopropyl)carbamoyl)piperidin-1-yl)phenoxy)-2-methylpropanoyl)-2,6-diazaspiro[3.4]octan-2-ium 2,2,2-trifluoroacetate] cannot be ordered by Ki: < 30 µM for the first, < 30 µM for the second.

`CC(C)(Oc1cccc(N2CCC[C@@H](C(=O)N(Cc3ccc(-c4cn[nH]c4)cc3)C3CC3)C2)c1)C(=O)N1CCC2(CCNC2)C1` (stereo partly drawn) [Compound 59, 7-(2-(3-((R)-3-((4-(1H-pyrazol-4-yl)benzyl)(cyclopropyl)carbamoyl)piperidin-1-yl)phenoxy)-2-methylpropanoyl)-2,7-diazaspiro[4.4]nonan-2-ium chloride] and `CC(C)(Oc1cccc(N2CCC[C@@H](C(=O)N(Cc3ccc(-c4cn[nH]c4)cc3)C3CC3)C2)c1)C(=O)N1CC2(CCNCC2)C1` [Compound 60, (R)-2-(2-(3-(3-((4-(1H-pyrazol-4-yl)benzyl)(cyclopropyl)carbamoyl)piperidin-1-yl)phenoxy)-2-methylpropanoyl)-2,7-diazaspiro[3.5]nonan-7-ium 2,2,2-trifluoroacetate] cannot be ordered by Ki: < 5 µM for the first, < 30 µM for the second.

Same assay, conditions: Table 8, inhibitors 82-92; read-out: Ki

`O=C([C@@H]1CCCN(c2cccc(OC3(C(=O)N4CCNCC4)CC3)c2)C1)N(Cc1ccc(-c2cn[nH]c2)cc1)C1CC1` [Compound 82, (R)-4-(1-(3-(3-((4-(1H-pyrazol-4-yl)benzyl)(cyclopropyl)carbamoyl)piperidin-1-yl)phenoxy)cyclopropane-1-carbonyl)piperazin-1-ium chloride] and `O=C([C@@H]1CCCN(c2cccc(OC3(C(=O)N4CCNCC4)CCCC3)c2)C1)N(Cc1ccc(-c2cn[nH]c2)cc1)C1CC1` [Compound 83, (R)-4-(1-(3-(3-((4-(1H-pyrazol-4-yl)benzyl)(cyclopropyl)carbamoyl)piperidin-1-yl)phenoxy)cyclopentane-1-carbonyl)piperazin-1-ium chloride] cannot be ordered by Ki: < 10 µM for the first, < 90 µM for the second.

Same assay, conditions: linear alkyl R1 substitutions; FIG. 4A

For `CCOCCN(Cc1ccc(-c2cn[nH]c2)cc1)C(=O)[C@@H]1CCCN(c2cccc(OC(C)(C)C(=O)N3CCNCC3)c2)C1.Cl` [Compound 52, (R)-4-(2-(3-(3-((4-(1H-pyrazol-4-yl)benzyl)(2-ethoxyethyl)carbamoyl)piperidin-1-yl)phenoxy)-2-methylpropanoyl)piperazin-1-ium chloride], the “inhibitory activity (SAR, AlphaScreen)” value was “maintained the inhibitory activities”.
